Experimental data reported in patent US20210388007A1, “COMPOUND AND PREPARATION METHOD AND APPLICATION THEREOF” (WUHAN UNIVERSITY, priority 2020, published 2021).

Assays:
[1] = solubility in common solvents of the tri(di)fluoroethanolation reagents; format: physicochemical; settings: for solubility acetonitrile: solvent acetonitrile; for solubility dichloromethane (DCM): solvent dichloromethane (DCM); for solubility ethyl acetate (EA): solvent ethyl acetate (EA); for solubility n-hexane: solvent n-hexane
Procedure: (§1) The storage stability, light stability and solubility in common solvents of the tri(di)fluoroethanolation reagents 1a, 2a, A2, A3 and A4 prepared in Embodiment 1, Embodiment 23, Embodiment 30, Embodiment 31 and Embodiment 32 of the present disclosure were tested, and the results are shown in Table 1 below.

[2] = storage stability (sealed storage, degradation rate); format: physicochemical
Procedure: as §1

[3] = light stability (continuous white light irradiation, degradation rate); format: physicochemical
Procedure: as §1

SMILES	solubility acetonitrile [1]	solubility dichloromethane (DCM) [1]	solubility ethyl acetate (EA) [1]	solubility n-hexane [1]	storage stability, sealed storage at 5° C. for two weeks (degradation rate, mol %) [2]	storage stability, sealed storage at 30° C. for two weeks (degradation rate, mol %) [2]	light stability, continuous white light irradiation at 25° C. for 2 days (degradation rate, mol %) [3]	melting point	storage stability, sealed storage at 5° C. for two weeks (degradation rate, mol %) ([2]; listed as A2)	storage stability, sealed storage at 30° C. for two weeks (degradation rate, mol %) ([2]; listed as A2)
C[Si](c1ccccc1)(c1ccccc1)C(O)C(F)(F)F (racemic) [Embodiment A4]	dissolved	dissolved	dissolved	well	<1% mol %	3.2% mol %	<1% mol %			
CC1(CC(O)C(F)(F)F)C(=O)N(c2ccccc2)c2ccccc21 (stereo not shown) [Embodiment 21, 3-methyl-1-phenyl-3-(3,3,3-trifluoro-2-hydroxypropyl)indol-2-one]								116 to 118 °C		
C[Si](C)(c1ccccc1)C(O)C(F)(F)F (racemic) [a1]	dissolved	dissolved	dissolved	dissolved	<1% mol %	5% mol %	<1% mol %			
OC(C(F)(F)F)[Si](c1ccccc1)(c1ccccc1)c1ccccc1 (stereo not shown) [Embodiment A3]	dissolved	dissolved	dissolved	slightly	<1% mol %	<1% mol %	<1% mol %			
C[Si](C)(c1ccccc1)C(O)C(F)F (racemic) [a2]	dissolved	dissolved	dissolved	dissolved	<1% mol %	4% mol %	<1% mol %		2% mol %	14% mol %
